Results published in PubChem BioAssay (NCI).
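Results reflect a 48-hour exposure of cells in 96-well plates to compound at five concentrations. GI50: concentration for 50% inhibition of growth. The concentration for full growth arrest is given as TGI.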 Where a SMILES comes first, the peptide text is derived from it. Bridges are numbered along the chain shown (N, C = ends). [ ]: non-standard residue; d: D form. ξ: configuration not given here. ξThr(3R) = C[C@@H](O)C(N)C(=O)O; S5 = C=CCCC[C@](C)(N)C(=O)O

Key:
Assay in all cases: inhibition of tumour cell growth, NCI panel, 48 h
[1] = test system: HCC-2998 colon
[2] = test system: HCT-116 colon
[3] = test system: HCT-15 colon
[4] = test system: M14 melanoma
[5] = test system: MALME-3M melanoma
[6] = test system: NCI-H226 lung
[7] = test system: RXF 393 renal
[8] = test system: SK-MEL-28 melanoma
[9] = test system: UACC-257 melanoma
[10] = test system: HS 578T breast

| SMILES | TGI [1] | TGI [2] | TGI [3] | TGI [4] | TGI [5] | TGI [6] | TGI [7] | TGI [8] | TGI [9] | GI50 [1] | GI50 [2] | GI50 [3] | GI50 [10] | TGI [10] | GI50 [4] | GI50 [5] | GI50 [6] | GI50 [7] | GI50 [8] | GI50 [9] |
| --- | --- | --- | --- | --- | --- | --- | --- | --- | --- | --- | --- | --- | --- | --- | --- | --- | --- | --- | --- | --- |
| COc1cc2c(cc1O)CN1CCC23C=C[C@@H](O)CC13 (stereo not given in full) | > 100 µM | > 100 µM | > 100 µM | > 100 µM | > 100 µM | > 100 µM | > 100 µM | > 100 µM | > 100 µM |  |  |  |  |  |  |  |  |  |  |  |
| O=c1c2ccccc2nc(-c2ccccc2Cl)n1-c1nnc(C(F)(F)F)s1 | 19.6 µM | 10.1 µM | 15 µM | 23.7 µM | 7.35 µM | 8.55 µM | 14.4 µM | 90.9 µM |  | 4.24 µM | 2700 nM | 2.94 µM | 2380 nM | 9.3 µM | 4.17 µM | 2510 nM | 2400 nM | 2770 nM | 4.63 µM |  |
| OCc1ccc(N2CCc3cc(F)ccc3C2)cc1Cl | 12.8 µM | 11.2 µM | 21.2 µM | 30.7 µM | 31.8 µM |  | 17.5 µM | 26.9 µM | 0.0723 µM | 1.58 µM | < 16.6 nM | 3.98 µM | 21300 nM | 59.1 µM | 16.2 µM | 16600 nM |  | 993 nM | 13.8 µM | 19.7 nM |
| O=C1c2ccccc2C(=O)c2c1ccc1c(=O)n(-c3ccccc3C(F)(F)F)nnc21 | 6.16 µM | 10.5 µM |  |  | 2.54 µM | 5.87 µM | 4.87 µM | > 100 µM | 3.51 µM | 2.45 µM | 1850 nM |  | 3040 nM | > 100 µM |  | 1270 nM | 2380 nM | 2150 nM | 5.79 µM | 1710 nM |
| CN(NC1OC(CO)C(O)C(O)C1O)c1ccccc1 (stereo not given) | > 100 µM | > 100 µM | > 100 µM | > 100 µM | > 100 µM | > 100 µM | > 100 µM | > 100 µM | > 100 µM |  |  |  |  |  |  |  |  |  |  |  |
| CC(=O)Nc1ccc(/C=C2\N=C(c3ccccc3)OC2=O)cc1 | > 100 µM | > 100 µM | > 100 µM | > 100 µM | > 100 µM | > 100 µM | > 100 µM | > 100 µM | > 100 µM |  |  |  |  |  |  |  |  |  |  |  |
| O=CNc1ccc(S(=O)(=O)c2ccc(NC=O)cc2)cc1 | > 100 µM | > 100 µM | > 100 µM | > 100 µM | > 100 µM |  |  | > 100 µM | > 100 µM |  |  |  |  | > 100 µM |  |  |  |  |  |  |
| CC(=O)N[C@H](C(=O)N[C@@H](CCCNC(=N)N)C(=O)N[C@@H](CCCCN)C(=O)N[C@@H](CCCNC(=N)N)C(=O)NC(C(=O)N[C@@H](CC(C)C)C(=O)N[C@@H](CCCNC(=N)N)C(=O)N[C@@]1(C)CCC/C=C\CCC[C@@](C)(C(=O)N[C@@H](CCCNC(=N)N)C(=O)N[C@@H](CCC(=O)O)C(=O)N[C@@H](CC(C)C)C(=O)N[C@H](C(=O)N[C@@H](CCC(=O)O)C(N)=O)C(C)C)NC(=O)[C@H](CCC(N)=O)NC(=O)[C@H](CC(C)C)NC(=O)[C@H](CC(C)C)NC1=O)[C@@H](C)O)C(C)C (stereo partly drawn) (Ac-VRKR[ξThr(3R)]LR[S5]LLQ[S5]RELVE-NH2; staple (Z) 8-12) | 18.2 µM | 17.1 µM | 14.7 µM | 11.5 µM | 7.14 µM | 14.8 µM | 12.1 µM | 11.3 µM |  | 7.67 µM | 8870 nM | 6.22 µM | 1480 nM | 5.31 µM | 4.27 µM | 1760 nM | 5310 nM | 2700 nM | 3.93 µM |  |
